Test results taken from the NIST ThermoML archive (doi:10.1016/j.jct.2004.12.014).
± gives the expanded uncertainty stated by the source.

Assays:
[1] = xn = mol fraction of the nth substance listed; settings: 318.15 K, 101 kPa, Liquid
[2] = excess molar enthalpy (molar enthalpy of mixing); xn = mol fraction of the nth substance listed; settings: 318.15 K, 101 kPa, Liquid

CCCCCOC(=O)CC [pentyl propanoate] + CCCCCCCCCCCCC
excess molar volume ([1]; x1 = 0.0877): 2.09e-07 ± 1.6e-08 m3/mol
excess molar volume ([1]; x1 = 0.1642): 3.71e-07 ± 1.7e-08 m3/mol
excess molar volume ([1]; x1 = 0.2425): 5.1e-07 ± 1.8e-08 m3/mol
excess molar volume ([1]; x1 = 0.3196): 6.05e-07 ± 1.8e-08 m3/mol
excess molar volume ([1]; x1 = 0.3804): 6.65e-07 ± 1.9e-08 m3/mol
excess molar volume ([1]; x1 = 0.4461): 6.93e-07 ± 1.9e-08 m3/mol
excess molar volume ([1]; x1 = 0.5107): 7.04e-07 ± 1.9e-08 m3/mol
excess molar volume ([1]; x1 = 0.5701): 6.95e-07 ± 1.9e-08 m3/mol
excess molar volume ([1]; x1 = 0.6258): 6.64e-07 ± 1.9e-08 m3/mol
excess molar volume ([1]; x1 = 0.6801): 6.16e-07 ± 1.8e-08 m3/mol
excess molar volume ([1]; x1 = 0.7305): 5.62e-07 ± 1.8e-08 m3/mol
excess molar volume ([1]; x1 = 0.7814): 4.99e-07 ± 1.8e-08 m3/mol
excess molar volume ([1]; x1 = 0.8272): 4.41e-07 ± 1.8e-08 m3/mol
excess molar volume ([1]; x1 = 0.8719): 3.34e-07 ± 1.7e-08 m3/mol
excess molar volume ([1]; x1 = 0.9166): 2.64e-07 ± 1.7e-08 m3/mol
excess molar volume ([1]; x1 = 0.9578): 1.29e-07 ± 1.6e-08 m3/mol
excess molar enthalpy ([2]; x1 = 0.0691): 0.0578 ± 0.00129 kcal/mol
excess molar enthalpy ([2]; x1 = 0.1382): 0.105 ± 0.00201 kcal/mol
excess molar enthalpy ([2]; x1 = 0.2136): 0.151 ± 0.00263 kcal/mol
excess molar enthalpy ([2]; x1 = 0.2861): 0.185 ± 0.00335 kcal/mol
excess molar enthalpy ([2]; x1 = 0.3564): 0.209 ± 0.00359 kcal/mol
excess molar enthalpy ([2]; x1 = 0.4222): 0.224 ± 0.00382 kcal/mol
excess molar enthalpy ([2]; x1 = 0.4822): 0.229 ± 0.00382 kcal/mol
excess molar enthalpy ([2]; x1 = 0.5355): 0.228 ± 0.00382 kcal/mol
excess molar enthalpy ([2]; x1 = 0.578): 0.222 ± 0.00382 kcal/mol
excess molar enthalpy ([2]; x1 = 0.5956): 0.219 ± 0.00382 kcal/mol
excess molar enthalpy ([2]; x1 = 0.6423): 0.207 ± 0.00359 kcal/mol
excess molar enthalpy ([2]; x1 = 0.6875): 0.193 ± 0.00335 kcal/mol
excess molar enthalpy ([2]; x1 = 0.7398): 0.171 ± 0.00311 kcal/mol
excess molar enthalpy ([2]; x1 = 0.7927): 0.148 ± 0.00263 kcal/mol
excess molar enthalpy ([2]; x1 = 0.8474): 0.118 ± 0.00222 kcal/mol
excess molar enthalpy ([2]; x1 = 0.9008): 0.0823 ± 0.00167 kcal/mol
excess molar enthalpy ([2]; x1 = 0.9546): 0.0415 ± 0.00105 kcal/mol

CCCCCOC(=O)CC [pentyl propanoate] + CCCCCCCCCCCCCCC
excess molar volume ([1]; x1 = 0.0451): 1.37e-07 ± 1.6e-08 m3/mol
excess molar volume ([1]; x1 = 0.1011): 2.83e-07 ± 1.7e-08 m3/mol
excess molar volume ([1]; x1 = 0.1866): 4.41e-07 ± 1.8e-08 m3/mol
excess molar volume ([1]; x1 = 0.2665): 5.63e-07 ± 1.8e-08 m3/mol
excess molar volume ([1]; x1 = 0.341): 6.68e-07 ± 1.9e-08 m3/mol
excess molar volume ([1]; x1 = 0.4128): 7.28e-07 ± 1.9e-08 m3/mol
excess molar volume ([1]; x1 = 0.478): 7.64e-07 ± 1.9e-08 m3/mol
excess molar volume ([1]; x1 = 0.5422): 7.75e-07 ± 1.9e-08 m3/mol
excess molar volume ([1]; x1 = 0.5989): 7.59e-07 ± 1.9e-08 m3/mol
excess molar volume ([1]; x1 = 0.6522): 7.35e-07 ± 1.9e-08 m3/mol
excess molar volume ([1]; x1 = 0.7029): 6.74e-07 ± 1.9e-08 m3/mol
excess molar volume ([1]; x1 = 0.7542): 6.2e-07 ± 1.8e-08 m3/mol
excess molar volume ([1]; x1 = 0.7997): 5.33e-07 ± 1.8e-08 m3/mol
excess molar volume ([1]; x1 = 0.8438): 4.51e-07 ± 1.8e-08 m3/mol
excess molar volume ([1]; x1 = 0.8845): 3.62e-07 ± 1.7e-08 m3/mol
excess molar volume ([1]; x1 = 0.924): 2.42e-07 ± 1.7e-08 m3/mol
excess molar volume ([1]; x1 = 0.9627): 1.57e-07 ± 1.6e-08 m3/mol
excess molar enthalpy ([2]; x1 = 0.0757): 0.0662 ± 0.00143 kcal/mol
excess molar enthalpy ([2]; x1 = 0.1563): 0.124 ± 0.00232 kcal/mol
excess molar enthalpy ([2]; x1 = 0.2383): 0.174 ± 0.00311 kcal/mol
excess molar enthalpy ([2]; x1 = 0.3152): 0.212 ± 0.00359 kcal/mol
excess molar enthalpy ([2]; x1 = 0.3915): 0.238 ± 0.00406 kcal/mol
excess molar enthalpy ([2]; x1 = 0.4596): 0.251 ± 0.0043 kcal/mol
excess molar enthalpy ([2]; x1 = 0.52): 0.254 ± 0.0043 kcal/mol
excess molar enthalpy ([2]; x1 = 0.5607): 0.251 ± 0.0043 kcal/mol
excess molar enthalpy ([2]; x1 = 0.5843): 0.246 ± 0.0043 kcal/mol
excess molar enthalpy ([2]; x1 = 0.6262): 0.236 ± 0.00406 kcal/mol
excess molar enthalpy ([2]; x1 = 0.6747): 0.22 ± 0.00382 kcal/mol
excess molar enthalpy ([2]; x1 = 0.7264): 0.2 ± 0.00359 kcal/mol
excess molar enthalpy ([2]; x1 = 0.7806): 0.174 ± 0.00311 kcal/mol
excess molar enthalpy ([2]; x1 = 0.8352): 0.141 ± 0.00263 kcal/mol
excess molar enthalpy ([2]; x1 = 0.892): 0.0996 ± 0.00194 kcal/mol
excess molar enthalpy ([2]; x1 = 0.9477): 0.0535 ± 0.00124 kcal/mol
